In patent US20100111992A1, “CYTOM[…] AND METHODS OF USE THEREOF” (THE REGENTS OF THE UNIVERSITY OF CALIFORNIA, priority 2006, published 2010):

Tests used:
Assay type in all cases: cell-based, human
PD-L1 (a PD-1 ligand) = assay: Surface expression of PD-L1; settings: Donor CMV001 vs Donor BB008, FIG. 10
PD-L2 (a PD-1 ligand) = assay: Surface expression of PD-L2; settings: Donor CMV001 vs Donor BB008, FIG. 11
PD-1 = PD-1 Taqman; settings: for ΔCT (BB008) / ΔΔCT(BB008): Donor BB008; for ΔCT (BB008): No Pep 6.4; for ΔΔCT(BB008) / ΔΔCT(BB011) / ΔΔCT(BB013) / ΔΔCT(CMV001): relative to No Pep; for ΔCT (BB011) / ΔΔCT(BB011): Donor BB011; for ΔCT (BB011): No Pep 3.57; for ΔCT(BB013) / ΔΔCT(BB013): Donor BB013; for ΔCT(BB013): No Pep 4.745; for ΔCT(CMV001) / ΔΔCT(CMV001): Donor CMV001; for ΔCT(CMV001): No Pep 5.08
[1] = system: CD4+ induced cells (antigen-stimulated T effector cells); assay: Proliferation assay of CD4+ induced cells (3H incorporation); settings: for stimulation index: as compared to cells without peptide
Method: (§1) These experiments focus on confirming the in vitro recognition of the novel class I and class II CMV epitopes predicted to be strong MHC binders by validated computer algorithms using T cells from CMV-positive healthy donors. Phenotypical analysis of CD4+ T cell effectors included a marker of activation (CD69) as well as T cell inflammatory cytokines (TNFα, IFNγ, and IL-2). Functional analysis of CD4+ and CD8+ T cell effectors was measured by proliferative epitope-specific responses via ^3H incorporation and IFNγ expression measured by ELISA, respectively.
Wells are then pulsed with 1 μCi of ^3H for the last 18 hours. Proliferation is then measured by calculating the absorption of ^3H on a beta counter. PHA is a positive control while APCs alone are the negative control. This translates into stimulation indices of 30 and 45.8 in antigen-specific proliferation assays as compared to cells without peptide.
Antigen-stimulated T effector cells are incubated with autologous, irradiated total peripheral blood mononuclear cells for 96 hours. Wells are pulsed with 1 μCi of ^3H for the last 18 hours. Proliferation is then measured by calculating the absorption of ^3H on a beta counter. APCs alone are the negative control.
Data from the six donors SA001, SA005, SA006, BB006, BB008, CMV001, BB011, and BB013 are shown. No peptide versus 3DR (P<0.001); no peptide versus 4DR (P<0.05); 1DR versus 3DR (P<0.05); 2DR versus 3DR (P<0.01); and 3DR versus 6DR (P<0.05).

enriched CD4+ cells = assay: Intracellular IL-2 expression in enriched CD4+ cells; settings: for expression of IL-2 as compared to no peptide: FIG. 2, in words; for expression of IL-2 in CD4+ cells: FIG. 2, day 17, cells without peptide 3.18%
Method: as §1
Enriched CD4+ cells are incubated with peptide-pulsed irradiated autologous PBMCs, restimulated with peptide on day 7, stimulated with low-dose IL-2 (20 U/ml) on day 9, and then evaluated for intracellular cytokine production on day 17. FIG. 2A illustrates no peptide, while FIGS. 2B and 2C show stimulation by peptides 1DR and 4DR, respectively.

enriched CD4 cells = assay: Intracellular TNFα in CD4 cells (FACS); settings: for immunogenicity (reflected by increased TNFα), CMV-infected subject vs healthy CMV+ subject: Donor CMV001 vs Donor BB008, FIG. 7; for TNFα synthesis as compared to control: FIG. 4, donors SA005 and SA006, in words; for TNFα stimulation (FACS data): over multiple HLA-type donors; for immunogenicity reflected by TNFα: six donors
Method: as §1
In addition, these cells are all chemokine receptor CCR7 negative, reflecting their T effector status.
Enriched CD4 cells are incubated with peptide-pulsed irradiated autologous peripheral blood mononuclear cells, restimulated with peptide on day 7, stimulated with low-dose IL-2 (20 U/ml) on day 10 and 14, and then evaluated for intracellular cytokine production on day 17.

CD4+ T cell effectors = assay: IFNg in CD4 cells (FACS); settings: for immunogenicity (reflected by increased IFNg), CMV-infected subject vs healthy CMV+ subject: Donor CMV001 vs Donor BB008, FIG. 8; for IFNg stimulation (FACS data): over multiple HLA-type donors; for immunogenicity reflected by IFNg: six donors
Method: as §1

[2] = system: PD-1 (programmed cell death-1); assay: Surface expression of PD-1; settings: Donor CMV001 vs Donor BB008, FIG. 9
From the text: This correlates with latency versus infection in the two subjects.

CD8+ T cell effectors = assay: IFNγ expression measured by ELISA, CD8+ T cell effectors (class I peptides)
Method: As such, these experiments focus on confirming that the in vitro recognition of the novel class I and class II CMV epitopes predicted to be strong MHC binders by validated computer algorithms using T cells from CMV-positive healthy donors. Phenotypical analysis of CD4+ T cell effectors included a marker of activation (CD69) as well as T cell inflammatory cytokines (TNFα, IFNγ, and IL-2). Functional analysis of CD4+ and CD8+ T cell effectors was measured by proliferative epitope-specific responses via ^3H incorporation and IFNγ expression measured by ELISA, respectively.
as §1

[3] = FIG. 1, 96 hours with autologous irradiated PBMCs, 3H last 18 hours
[4] = excluding CMV-infected subject (CMV001), FIG. 12
[5] = including CMV-infected subject (CMV001), FIG. 13

Row | Sequence | surface expression of PD-L1, CMV-infected subject vs healthy CMV+ subject (PD-L1 (a PD-1 ligand)) | surface expression of PD-L2, CMV-infected subject vs healthy CMV+ subject (PD-L2 (a PD-1 ligand)) | ΔCT (BB008) (PD-1) | ΔΔCT(BB008) (PD-1) | ΔCT (BB011) (PD-1) | ΔΔCT(BB011) (PD-1) | ΔCT(BB013) (PD-1) | ΔΔCT(BB013) (PD-1) | ΔCT(CMV001) (PD-1) | ΔΔCT(CMV001) (PD-1) | immunogenicity (reflected by increased TNFα), CMV-infected subject vs healthy CMV+ subject (enriched CD4 cells) | TNFα stimulation (FACS data) (enriched CD4 cells) | immunogenicity reflected by TNFα (enriched CD4 cells; [4]) | immunogenicity (reflected by increased IFNg), CMV-infected subject vs healthy CMV+ subject (CD4+ T cell effectors) | IFNg stimulation (FACS data) (CD4+ T cell effectors) | immunogenicity reflected by IFNg (CD4+ T cell effectors; [4]) | surface expression of PD-1, CMV-infected subject vs healthy CMV+ subject [2] | also measured
1 | SGKLFMHVTLGSDVE [5DR, human CMV pp65-derived class II peptide, Human (DRB1)] | more surface expression of PD-L1 | more surface expression of PD-L2 | 6.26 | −0.14 | 3.97 | 0.4 | 6.73 | 1.985 | 3.53 | −1.55 | – | – | – | – | – | – | – | –
2 | MISVLGPISGHVLKA [2DR, human CMV pp65-derived class II peptide, Human (DRB1)] | – | – | 5.525 | −0.875 | 2.94 | −0.63 | 5.26 | 0.515 | 5.005 | −0.075 | – | – | – | – | – | – | – | –
3 | MSIYVYALPLKMLNI [1DR, human CMV pp65-derived class II peptide, Human (DRB1)] | more surface expression of PD-L1 | more surface expression of PD-L2 | 5.385 | −1.015 | 3.67 | 0.1 | 5.74 | 0.995 | 3.635 | −1.445 | greater than in a healthy CMV+ subject | peptide-specific TNFα and IFNg stimulation | increased TNFα and IFNg | greater than in a healthy CMV+ subject | peptide-specific TNFα and IFNg stimulation | increased TNFα and IFNg | more surface expression of PD-1 | proliferation, counts per minute [1, 3]: 10,201 cpm; stimulation index ([1]; FIG. 1): 30; expression of IL-2 as compared to no peptide (enriched CD4+ cells): stimulate expression of IL-2; expression of IL-2 in CD4+ cells (enriched CD4+ cells): 39.58%; TNFα synthesis as compared to control (enriched CD4 cells): stimulate TNFα synthesis; expression of TNFα in CD4 cells (enriched CD4 cells; donor SA005): 15.9%; immunogenicity reflected by TNFα (enriched CD4 cells; [5]): increased TNFα and IFNg; immunogenicity reflected by IFNg (CD4+ T cell effectors; [5]): increased TNFα and IFNg
4 | DVYYTSAFVFPTKDV [4DR] | more surface expression of PD-L1 | more surface expression of PD-L2 | 1.185 | −5.215 | 3.345 | −0.225 | 4.57 | −0.175 | 1.165 | −3.915 | greater than in a healthy CMV+ subject | peptide-specific TNFα and IFNg stimulation | increased TNFα and IFNg | greater than in a healthy CMV+ subject | peptide-specific TNFα and IFNg stimulation | increased TNFα and IFNg | more surface expression of PD-1 | proliferation, counts per minute [1, 3]: 15,572 cpm; stimulation index ([1]; FIG. 1): 45.8; expression of IL-2 as compared to no peptide (enriched CD4+ cells): stimulate expression of IL-2; expression of IL-2 in CD4+ cells (enriched CD4+ cells): 15.13%; TNFα synthesis as compared to control (enriched CD4 cells): stimulate TNFα synthesis; immunogenicity reflected by TNFα (enriched CD4 cells; [5]): increased TNFα and IFNg; immunogenicity reflected by IFNg (CD4+ T cell effectors; [5]): increased TNFα and IFNg
5 | HVRVSQPSLILVSQY [3DR, human CMV pp65-derived class II peptide, Human (DRB1)] | – | – | 5.635 | −0.765 | 4.08 | 0.51 | 5.995 | 1.25 | 2.545 | −2.535 | greater than in a healthy CMV+ subject | peptide-specific TNFα and IFNg stimulation | increased TNFα and IFNg | greater than in a healthy CMV+ subject | peptide-specific TNFα and IFNg stimulation | increased TNFα and IFNg | more surface expression of PD-1 | stimulation index ([1]; first of two CMV+ healthy donors (FIG. 3)): 83.05; proliferation, counts per minute ([1]; first of two CMV+ healthy donors (FIG. 3; presumably Donor SA005)): 30,231.67 cpm; stimulation index ([1]; second of two CMV+ healthy donors (FIG. 3)): 147.03; proliferation, counts per minute ([1]; second of two CMV+ healthy donors (FIG. 3; presumably Donor SA006)): 49,648.33 cpm; functional response (proliferation data) ([1]; summary in words): leads to a functional response; expression of TNFα in CD4 cells (enriched CD4 cells; donor not given): 34.58%
6 | AGILARNLVPMVATV [6DR, human CMV pp65-derived class II peptide, Human (DRB1)] | more surface expression of PD-L1 | more surface expression of PD-L2 | – | – | 3.845 | 0.275 | 5.05 | 0.305 | – | – | – | – | – | – | – | – | – | –
7 | YTSAFVFPT [CMV65182-190, human CMV pp65-derived class I peptide, Human (A2)] | – | – | – | – | – | – | – | – | – | – | – | – | – | – | – | – | – | immunogenicity among the class I peptides (CD8+ T cell effectors; IFNγ ELISA): most immunogenic; IFNγ measured by ELISA (mean) (CD8+ T cell effectors; class I peptides, T cells from CMV-positive healthy donors): 1999 pg/mL
